Data published in ChEMBL document CHEMBL1147468, “Synthesis and anti-inflammatory effects of novel pimarane diterpenoid analogs” (Bioorg Med Chem Lett, 2004).
Calls of active or inactive are those of the source. No cut-off for these calls is given here.

Legend:
RAW264.7 [1] = assay: In vitro inhibition of NO production at 40 uM concentration in RAW 264.7 cells; No activity; type: functional, cell-based; settings: Mus musculus
RAW264.7 [2] = assay: In vitro inhibition of NO production at 40 uM concentration in RAW 264.7 cells; type: functional; settings: Mus musculus
[3] = biological target: T1, Prostaglandin G/H synthase 2 (Ovis aries, UniProt P79208); assay: In vitro inhibition of Prostaglandin G/H synthase 2 from sheep placental cotyledons
T1 sequence (P79208 whole entry): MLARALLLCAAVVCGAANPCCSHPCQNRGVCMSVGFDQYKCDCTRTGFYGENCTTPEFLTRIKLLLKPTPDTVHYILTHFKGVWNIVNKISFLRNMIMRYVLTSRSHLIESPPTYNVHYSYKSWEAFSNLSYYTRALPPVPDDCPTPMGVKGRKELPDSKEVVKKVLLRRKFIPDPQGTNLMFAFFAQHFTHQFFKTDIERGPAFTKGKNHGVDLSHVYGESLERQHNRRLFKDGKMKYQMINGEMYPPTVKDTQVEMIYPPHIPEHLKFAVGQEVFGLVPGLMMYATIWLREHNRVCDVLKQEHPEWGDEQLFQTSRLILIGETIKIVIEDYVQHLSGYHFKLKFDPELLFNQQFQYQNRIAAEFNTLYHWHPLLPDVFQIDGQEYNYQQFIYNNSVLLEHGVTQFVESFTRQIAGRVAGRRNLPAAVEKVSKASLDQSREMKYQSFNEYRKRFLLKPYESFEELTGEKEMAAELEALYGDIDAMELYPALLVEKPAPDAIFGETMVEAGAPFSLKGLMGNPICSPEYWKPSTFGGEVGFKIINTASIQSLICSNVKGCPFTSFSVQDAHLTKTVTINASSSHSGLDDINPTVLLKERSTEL

[4] = biological target: T1, Prostaglandin G/H synthase 2; assay: In vitro inhibition of Prostaglandin G/H synthase 2 from sheep placental cotyledons; No activity

IC50 [3] | IC50 [4] | SMILES | inhibition (RAW264.7 [1]) | inhibition at 40 µM (RAW264.7 [2])
 |  | C=C[C@@]1(C)CC=C2C(CCC3[C@](C)(CC(=O)O)CCC[C@@]23C)C1 (stereo not given in full) | inactive | 
 |  | C=C[C@@]1(C)CC=C2C(CCC3[C@](C)(C/C=C\C(=O)O)CCC[C@@]23C)C1 (stereo not given in full) |  | 77.9%
 |  | C=C[C@@]1(C)CC=C2C(CCC3[C@](C)(CCC(=O)O)CCC[C@@]23C)C1 (stereo not given in full) |  | 23%
60.7 µM |  | C=C[C@@]1(C)CC=C2C(CCC3[C@](C)(CCC(=O)NS(=O)(=O)c4ccc(I)cc4)CCC[C@@]23C)C1 (stereo not given in full) |  | 99.5%
 | Not Active | C=C[C@@]1(C)CC=C2C(CCC3[C@](C)(C(=O)n4ccnc4)CCC[C@@]23C)C1 (stereo not given in full) |  | 99%
 |  | C=C[C@@]1(C)CC=C2C(CCC3[C@@]2(C)CCC[C@@]3(C)/C=C/C=C/C(=O)O)C1 (stereo not given in full) |  | 96.5%
 | Not Active | C=C[C@@]1(C)CC=C2C(CCC3[C@](C)(C(=O)NC)CCC[C@@]23C)C1 (stereo not given in full) |  | 85.3%
72.2 µM |  | C=C[C@@]1(C)CC=C2C(CCC3[C@](C)(CC(=O)NS(=O)(=O)c4ccc(I)cc4)CCC[C@@]23C)C1 (stereo not given in full) |  | 94.6%
 |  | C=C[C@@]1(C)CC=C2C(CCC3[C@](C)(C(=O)NN)CCC[C@@]23C)C1 (stereo not given in full) |  | 3.4%
 | Not Active | C=C[C@@]1(C)CC=C2C(CCC3[C@](C)(CO)CCC[C@@]23C)C1 (stereo not given in full) [ACANTHOL] |  | 84.8%
 |  | C=C[C@@]1(C)CC=C2C(CCC3[C@](C)(CCCCC(=O)O)CCC[C@@]23C)C1 (stereo not given in full) |  | 99%
 |  | C=C[C@@]1(C)CC=C2C(CCC3[C@](C)(CCCC(=O)O)CCC[C@@]23C)C1 (stereo not given in full) |  | 65.2%
37.8 µM |  | C=C[C@@]1(C)CC=C2C(CCC3[C@](C)(CCC/C=C/C(=O)O)CCC[C@@]23C)C1 (stereo not given in full) |  | 98.2%
 |  | C=C[C@@]1(C)CC=C2C(CCC3[C@@]2(C)CCC[C@@]3(C)/C=C/C(=O)O)C1 (stereo not given in full) |  | 45.1%
